Experimental data taken from US11065311B2, “Retroviral vector with mini-promoter cassette” (DENOVO BIOPHARMA LLC, priority 2012, dated 2021).

Test system: U87 cells
Conditions: MTS
Protocol: Cell were seeded at 3E3 cells in 96-well plates the day before. At 24 hour post cell seeding, PALA at 0.00975, 0.039, 0.156, 0.625, 2.5, 10, 40 and 160 uM were added to the culture for 5 consecutive days followed by an MTS assay to determine the cell viability. […] A range of cytosine concentrations (0.2, 1, 5 10 mM) in culture was also determined by performing the same experiment described above.

| Compound | tolerance of cells to cytosine (0.2, 1, 5 10 mM cytosine in culture) | IC50 (read-out: ICH of PALA, naive U87, U87 with pAC3-yCD2 and with pAC3.S1-yCD2, 5 consecutive days) [µM] |
| --- | --- | --- |
| Nc1cc[nH]c(=O)n1 [cytosine] | tolerate cytosine in all concentrations tested |  |
| N-(phosphonacetyl)-L-aspartate [PALA] |  | 8 to 30 |
